Structures can show the parent of a compound that is named as a salt.
Each molecule was assayed against T1, Diphosphomevalonate decarboxylase (Streptococcus pneumoniae serotype 2 (strain D39 / NCTC 7466), UniProt A0A0H2ZN59) (assay: diphosphomevalonate decarboxylase inhibition dose curves – biochemical, PK/LDH-coupled NADH fluorescence, hexokinase coupling counter-screen, dose response (AID 550)). Settings: not given.
T1 sequence (A0A0H2ZN59 whole entry): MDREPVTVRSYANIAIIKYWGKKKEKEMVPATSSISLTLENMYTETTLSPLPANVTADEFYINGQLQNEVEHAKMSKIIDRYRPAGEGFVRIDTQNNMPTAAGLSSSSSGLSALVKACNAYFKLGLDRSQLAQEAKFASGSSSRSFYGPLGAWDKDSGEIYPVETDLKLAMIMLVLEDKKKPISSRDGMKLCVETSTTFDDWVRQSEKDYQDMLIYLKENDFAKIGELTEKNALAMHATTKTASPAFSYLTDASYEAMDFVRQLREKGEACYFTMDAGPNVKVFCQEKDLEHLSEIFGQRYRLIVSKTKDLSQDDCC
For `COc1cc2c(cc1OC)C(CC(=O)N1CCOCC1)=NC(C)(C)C2` [(2Z)-2-(6,7-dimethoxy-3,3-dimethyl-2,4-dihydroisoquinolin-1-ylidene)-1-(4-morpholinyl)ethanone;hydrochloride], the IC50 was 38.8 µM.
`COc1ccc(N2C(C)=CS/C2=C(/C#N)c2nnc(N3CCOCC3)n2-c2ccccc2)cc1` [(2Z)-2-[3-(4-methoxyphenyl)-4-methyl-1,3-thiazol-2-ylidene]-2-(5-morpholin-4-yl-4-phenyl-1,2,4-triazol-3-yl)acetonitrile] was tested, and the IC50 was > 10000 µM.
With `CC(C)C(OC(=O)CN1C(=O)COc2ccccc21)C(=O)NC1CCCC1` (stereo not drawn) [(3-Oxo-2,3-dihydro-benzo[1,4]oxazin-4-yl)-acetic acid 1-cyclopentylcarbamoyl-2-methyl-propyl ester] the IC50 was > 10000 µM.
In the case of `Cc1cc(O)c(C=Nc2cccc(Cl)c2)c(=O)o1` [(3Z)-3-[(3-chloroanilino)methylene]-6-methyl-pyran-2,4-quinone], the IC50 is reported as > 10000 µM.
With `COc1cccc(C(=O)OCn2nnc3ccccc3c2=O)c1` [(4-oxidanylidene-1,2,3-benzotriazin-3-yl)methyl 3-methoxybenzoate] the IC50 was > 10000 µM.
For `CC(=NCc1ccco1)c1c(C)[nH]n(-c2nc3ccccc3s2)c1=O` [(4Z)-2-(1,3-benzothiazol-2-yl)-4-[1-(furan-2-ylmethylamino)ethylidene]-5-methyl-pyrazol-3-one], the IC50 was > 10000 µM.
In the case of `Cc1cc(N2CCOCC2)c2c(N)c(Br)cc(C)c2n1` [(6-bromo-2,8-dimethyl-4-morpholino-5-quinolyl)amine], the IC50 is reported as > 10000 µM.
`CCc1cc(C(Cc2ccc3ccccc3n2)N=O)c(O)cc1O` (stereo not drawn) [(6Z)-4-ethyl-3-hydroxy-6-[1-(hydroxyamino)-2-(2-quinolinyl)ethylidene]-1-cyclohexa-2,4-dienone] was tested, and the IC50 was > 10000 µM.
`N#C/C(=C\C1CC=CCC1)c1nc2ccccc2[nH]1` (stereo not drawn) [(E)-2-(1H-benzimidazol-2-yl)-3-cyclohex-3-en-1-ylprop-2-enenitrile] was tested, and the IC50 was > 10000 µM.
For `CCCn1c(=O)c2ccccc2n2c(SCC(=O)C(C#N)C(C)=N)nnc12` (stereo not drawn) [(E)-3-amino-2-[1-oxo-2-[(5-oxo-4-propyl-[1,2,4]triazolo[4,3-a]quinazolin-1-yl)thio]ethyl]-2-butenenitrile], the IC50 was > 10000 µM.
For `CC(O)COc1ccc(C(N=O)c2ccccc2)cc1` (stereo not drawn) [(E)-[4-(2-hydroxypropoxy)phenyl](phenyl)methanone oxime], the IC50 was > 10000 µM.
For `COc1ccccc1N1CCN(C(=O)CSc2nnc(NC(=O)c3ccco3)s2)CC1` [Furan-2-carboxylic acid (5-{2-[4-(2-methoxy-phenyl)-piperazin-1-yl]-2-oxo-ethylsulfanyl}-[1,3,4]thiadiazol-2-yl)-amide], the IC50 was 262 µM.
In the case of `CCOc1cc(NC(=O)c2ccco2)c(OCC)cc1NC(=O)CCc1ccc(OC)cc1` [Furan-2-carboxylic acid {2,5-diethoxy-4-[3-(4-methoxy-phenyl)-propionylamino]-phenyl}-amide], the IC50 is reported as > 10000 µM.
`COc1ccc2c(c1)C1(C)CC(C)(C)N2C(=O)N1c1ccccc1` (stereo not drawn) [MLS000027457] was tested, and the IC50 was 182 µM.
In the case of `CCCC(=O)Nc1ccc(N2CCN(C(=O)CCC)CC2)cc1` [MLS000034431], the IC50 is reported as > 10000 µM.
For `O=C(c1ccc(F)cc1)N1CCC(N2CCCCCC2)CC1` [MLS000037563], the IC50 was > 10000 µM.
In the case of `O=C(c1ccccc1F)N(Cc1ccccc1)C1CCS(=O)(=O)C1` (stereo not drawn) [MLS000039394], the IC50 is reported as > 10000 µM.
With `COC(=O)c1[nH]c2cccc(OC)c2c1NC(=O)CCN1CCN(c2ccccc2OC)CC1` [MLS000040529] the IC50 was 27.4 µM.
In the case of `O=C(CSc1ncnc2c1cnn2-c1ccccc1)Nc1ccc2c(c1)OCO2` [MLS000041214], the IC50 is reported as > 10000 µM.
`Cc1ccc2cc3c(NC(=O)c4ccco4)nn(C)c3nc2c1` [MLS000041273] showed an IC50 of 45.7 µM.
In the case of `CCCn1c(C)nc2c(c1=O)c1nc3ccccc3nc1n2-c1ccc2c(c1)OCCO2` [MLS000042026], the IC50 is reported as > 10000 µM.
`CCN(CC)S(=O)(=O)c1ccc(NC(=O)c2cccc3c2C(=O)N(CCOC)C3)cc1` [MLS000045293] was tested, and the IC50 was 50.5 µM.
Work on `O=C(NCC1CCCO1)c1coc2nc3ccccc3nc12` (stereo not drawn) [MLS000046703] yielded an IC50 of 30.6 µM.
`CC(NC(=O)c1cccc(N2CCCC2=O)c1)c1ccc2c(c1)OCCO2` (stereo not drawn) [MLS000046772] was tested, and the IC50 was > 10000 µM.
`Cc1c(NC(=O)CN2c3cccc4cccc(c34)S2(=O)=O)c(=O)n(-c2ccccc2)n1C` [MLS000050268] was tested, and the IC50 was 34.2 µM.
In the case of `O=C(Nc1ccc2nc(-c3cccs3)c(-c3cccs3)nc2c1)N1CCOCC1` [MLS000050299], the IC50 is reported as 25.8 µM.
For `NC(=O)c1ccsc1NC(=O)c1nc(-c2ccccc2)n(-c2ccccc2)n1` [MLS000054020], the IC50 was 55.9 µM.
`Cc1coc2cc3oc(=O)c4c(c3cc12)CCC4` [MLS000054228] was tested, and the IC50 was 52.9 µM.
Molecule `CC(C)CNC(=O)COc1ccc2c3c(c(=O)oc2c1)CCC3` [MLS000054673] has an IC50 of 65.4 µM.
`CCCN(CC(=O)c1cc(C)n(C)c1C)S(=O)(=O)c1cccc(C(F)(F)F)c1` [MLS000055141] was tested, and the IC50 was > 10000 µM.
`O=C(COc1cnc2ccccc2n1)NCCC1=CCCCC1` [MLS000056304] gave an IC50 of 188 µM.
In the case of `O=C(CSc1nnc2ccccn12)Nc1ccccc1C(=O)NC1CC1` [MLS000056825], the IC50 is reported as > 10000 µM.
With `Oc1nc(-c2ccncc2)nc2ccccc12` [MLS000056988] the IC50 was > 10000 µM.
For `O=S(=O)(Nc1cccc2ncccc12)c1cccs1` [MLS000057468], the IC50 was > 10000 µM.
`Cc1ccc(-n2c(SCC(=O)NCc3ccco3)nnc2-c2cccnc2)c(C)c1` [MLS000058402] was tested, and the IC50 was > 10000 µM.
`COc1cc(NC(=O)c2ccc3c(c2)OCO3)c2ncccc2c1` [MLS000061736] showed an IC50 of 52 µM.
With `CC(C)(CO)NC(=O)C(c1ccccc1)c1ccccc1` [MLS000062471] the IC50 was > 10000 µM.
With `O=C(Nc1ccc(-c2nc3ncccc3o2)cc1)c1ccco1` [MLS000062759] the IC50 was 34.9 µM.
In the case of `CCc1ccc(CCC(=O)Nc2ccc(C)c(C)c2)o1` [MLS000064736], the IC50 is reported as > 10000 µM.
`C=CCNc1nc(N2CCCC2)nc2ccccc12` [MLS000066749] showed an IC50 of 66.6 µM.
In the case of `CC(=O)Nc1cccc(NC(=O)CSc2nnnn2Cc2ccccc2)c1` [MLS000068005], the IC50 is reported as > 10000 µM.
In the case of `CCC(=O)Nc1cccc(NC(=O)CSc2nnnn2Cc2ccccc2)c1` [MLS000068150], the IC50 is reported as > 10000 µM.
`COc1cc(NC(=O)c2ccco2)c(OC)cc1NC(=O)CCC(=O)Nc1cc(C)ccc1C` [MLS000072545] was tested, and the IC50 was > 10000 µM.
For `CCn1c(SCC(=O)Nc2cccc(C(C)=O)c2)nnc1C(C)C` [MLS000073205], the IC50 was > 10000 µM.
For `COc1ccc(C2C3=C(OC(C)=O)c4ccccc4C3=Nc3c2c(=O)n(C)c(=O)n3C)cc1` (stereo not drawn) [MLS000073247], the IC50 was > 10000 µM.
In the case of `COc1cc(C(=O)Nc2ccc3c(c2)OCO3)ccc1-n1cnnn1` [MLS000073665], the IC50 is reported as > 10000 µM.
In the case of `O=C(Nc1ccc(N2CCCCC2)cc1)c1cccnc1` [MLS000074324], the IC50 is reported as > 10000 µM.
`Cc1cc(N2CCN(C(=O)c3ccco3)CC2)n2nc(-c3cccc(Cl)c3)cc2n1` [MLS000076302] was tested, and the IC50 was > 10000 µM.
`COc1ccc(-n2c(NC(=O)c3ccco3)c(C#N)c3nc4ccccc4nc32)cc1` [MLS000079925] was tested, and the IC50 was 16.9 µM.
For `CCCN1C(=O)C(NC(C)=O)c2cc(OC)ccc21` (stereo not drawn) [MLS000080624], the IC50 was > 10000 µM.
For `CCOC(=O)Cc1csc(-n2sc3ccccc3c2=O)n1` [MLS000082162], the IC50 was 7.58 µM.
`Cc1cccn2c(=O)c3cc(C#N)/c(=N\C(=O)c4ccc5c(c4)OCO5)n(CC(C)C)c3nc12` [MLS000082296] was tested, and the IC50 was 118 µM.
With `Cn1c(=O)[nH]c(=O)c2c1nc(NC1CCCCC1)n2Cc1ccccc1` [MLS000083828] the IC50 was > 10000 µM.
Molecule `CN(c1nc2ccccc2n2c(-c3ccco3)nnc12)S(=O)(=O)c1ccccc1` [MLS000083900] has an IC50 of 35.8 µM.
`CC(C)c1nc2oc3c(NCc4ccccn4)ncnc3c2c2c1COC(C)(C)C2` [MLS000084035] gave an IC50 of 813 µM.
In the case of `O=P1(NC2CCCC2)COc2ccccc2OC1` [MLS000084153], the IC50 is reported as > 10000 µM.
In the case of `Cc1nc2oc3c(NCC4CCCO4)ncnc3c2c2c1COC(C)(C)C2` (stereo not drawn) [MLS000084527], the IC50 is reported as 22.3 µM.
With `Cc1nc2oc3c(NCc4ccccn4)ncnc3c2c2c1COC(C)(C)C2` [MLS000084529] the IC50 was > 10000 µM.
With `Cc1cccc(C)c1NC(=O)C(c1ccccc1)N1CCN(C(=O)c2ccco2)CC1` (stereo not drawn) [MLS000086418] the IC50 was > 10000 µM.
With `COc1cc2c(cc1NC(=O)c1ccc3c(c1)OCO3)oc1ccccc12` [MLS000088875] the IC50 was > 10000 µM.
`O=C1CCC(C(=O)N(Cc2ccco2)C2(C(=O)NC3CCCC3)CCCCC2)N1` (stereo not drawn) [MLS000090457] was tested, and the IC50 was > 10000 µM.
In the case of `COc1ccc(N2CCN(CCNS(=O)(=O)c3cccc4nsnc34)CC2)cc1` [MLS000090468], the IC50 is reported as > 10000 µM.
In the case of `O=C(CCc1nc(-c2ccccc2F)no1)NCCN1CCc2ccccc2C1` [MLS000091170], the IC50 is reported as > 10000 µM.
For `COc1ccccc1-c1nc(C(N)=O)c2[nH]c(=O)n(-c3cccc(C)c3)c2n1` [MLS000094139], the IC50 was 21.6 µM.
Work on `CC(=O)NCCn1c(SCc2cc(=O)n3cc(Cl)ccc3n2)nc2ccccc2c1=O` [MLS000095256] yielded an IC50 of 70.6 µM.
`O=c1c2cc(N3CCOCC3)ccc2[nH]c(=S)n1Cc1ccccn1` [MLS000095415] showed an IC50 of 36.1 µM.
In the case of `COCCCn1c(=S)[nH]c2ccc(N3CCOCC3)cc2c1=O` [MLS000095418], the IC50 is reported as 26.7 µM.
In the case of `COc1ccccc1CNc1ncnc2nc[nH]c12` [MLS000101257], the IC50 is reported as > 10000 µM.

Same assay, conditions: inactive by the depositor's call
`Clc1ccc2c(c1)[C@H]1OCC[C@H]1[C@@H](c1ccco1)N2` [(3aS,4S,9bS)-8-chloranyl-4-(furan-2-yl)-2,3,3a,4,5,9b-hexahydrofuro[3,2-c]quinoline] was tested, and the IC50 was 24.4 µM.
`CCC(=O)Oc1ccc2c(C)cc(=O)oc2c1C` [(4,8-dimethyl-2-oxidanylidene-chromen-7-yl) propanoate] showed an IC50 of 29.9 µM.
Molecule `C/C(C=Nn1cnnc1)=C\c1ccco1` [(E)-3-(2-furanyl)-2-methyl-N-(1,2,4-triazol-4-yl)-2-propen-1-imine] has an IC50 of 125 µM.
For `COC(=O)Sc1nnc(-c2ccc(Br)cc2)o1` [MLS000084961], the IC50 was 16.4 µM.
Molecule `Nc1nc2c(s1)CCc1c-2cnn1-c1ccccc1` [MLS000085948] has an IC50 of 9.51 µM.
